{
  "source": "paper PMC3015019",
  "about": "(Biological psychiatry, 2010)",
  "key": {"[1]": {"tested_on": "DA levels in dialysates from the NAc shell", "experiment": "In-vivo microdialysis of extracellular DA in the NAc shell of freely moving rats", "details": "rat; for time for DA levels to return to basal levels after injection: cocaine: highest dose"}, "[2]": {"target": "T1, σ2 receptor (Cavia porcellus, UniProt H0V073)", "T1 sequence (H0V073 1-176)": "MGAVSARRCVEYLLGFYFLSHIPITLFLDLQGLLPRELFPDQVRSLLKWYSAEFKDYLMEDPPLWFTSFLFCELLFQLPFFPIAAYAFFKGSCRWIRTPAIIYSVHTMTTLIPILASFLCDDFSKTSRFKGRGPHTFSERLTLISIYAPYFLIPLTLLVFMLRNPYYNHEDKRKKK", "experiment": "Sigma 2 receptor binding, [3H]DTG displacement in presence of", "set-up": "species or system guinea pig", "details": "ratio of σ2 to σ1 affinity values"}, "[3]": {"target": "σ1 receptor (Cavia porcellus, UniProt Q60492)", "sequence (Q60492 whole entry)": "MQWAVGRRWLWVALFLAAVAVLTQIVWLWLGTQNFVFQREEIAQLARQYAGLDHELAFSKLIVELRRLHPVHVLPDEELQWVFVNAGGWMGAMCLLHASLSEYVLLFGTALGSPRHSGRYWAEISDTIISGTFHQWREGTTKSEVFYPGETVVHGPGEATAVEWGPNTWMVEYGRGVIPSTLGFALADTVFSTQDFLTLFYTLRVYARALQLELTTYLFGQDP", "experiment": "Sigma 1 receptor binding, [3H]", "set-up": "species or system guinea pig"}, "[4]": {"details": "10–30 mg/kg i.p., administered alone"}},
  "note": "Structures can show the parent of a compound that is named as a salt.",
  "data": [
    {"smiles": "CN(CCc1ccc(Cl)c(Cl)c1)CCN1CCCC1", "note": "[BD 1008]", "values": [
      {"measurement": "DA levels at 2 hr after injection, antagonist alone", "setting": "[1]; 10 mg/kg i.p., administered alone", "value": "~75 % of basal control values"}
    ]},
    {"smiles": "CN(C)CCN(C)CCc1ccc(Cl)c(Cl)c1", "note": "[BD 1047]", "values": [
      {"measurement": "σ2/σ1", "setting": "[2]", "value": 15.2}
    ]},
    {"smiles": "CN1CCN(CCc2ccc(Cl)c(Cl)c2)CC1", "note": "[BD 1063]", "values": [
      {"measurement": "later decrease in DA levels, antagonist alone", "setting": "[1]; [4]", "value": "about 80 % of baseline"},
      {"measurement": "transient (<30 min) non-significant increase in DA levels, antagonist alone", "setting": "[1]; [4]", "value": "about 30%"},
      {"measurement": "σ2/σ1", "setting": "[2]", "value": 70.9}
    ]},
    {"smiles": "COC(=O)[C@H]1[C@@H](OC(=O)c2ccccc2)C[C@@H]2CC[C@H]1N2C", "note": "[Cocaine, (−)-cocaine hydrochloride]", "values": [
      {"measurement": "time for DA levels to return to basal levels after injection", "setting": "[1]; i.v.", "value": "≤ 50", "unit": "min"},
      {"measurement": "Ki", "setting": "[3]", "value": 5.19, "unit": "µM"}
    ]},
    {"smiles": "Cc1ccccc1N=C(N)Nc1ccccc1C", "note": "[DTG]", "values": [
      {"measurement": "time of maximal effect on DA levels", "setting": "[1]; 3.2 mg/kg i.v.", "value": 20, "unit": "min"},
      {"measurement": "time of maximal effect on DA levels", "setting": "[1]; 5.6 mg/kg i.v.", "value": "≤ 10", "unit": "min"},
      {"measurement": "acute toxicity", "setting": "[1]; i.v., doses higher than 5.6 mg/kg", "value": "signs of acute toxicity"},
      {"measurement": "time for DA levels to return to basal levels after injection", "setting": "[1]; i.v.", "value": "≤ 45", "unit": "min"}
    ]},
    {"smiles": "CC(=O)c1ccc2c(c1)oc(=O)n2CCCCN1CCN(c2ccc(F)cc2)CC1", "note": "[SN79]", "values": [
      {"measurement": "effect on extracellular levels of DA, antagonist alone", "setting": "[1]; 1–3 mg/kg i.p., up to 100 min after administration", "value": "did not significantly modify"}
    ]}
  ]
}
